Structures can show the parent of a compound that is named as a salt.
Key:
[1] = tested on: Male Wistar rats; test: Sucrose preference test (chronic mild stress model, CMS); assay type: in vivo, rat; conditions: for effect on sucrose intakes in control animals, compared to vehicle: control rats; for effect on sucrose intakes in control animals, compared to vehicle / effect on sucrose consumption in stressed animals, compared to vehicle: daily IP for five weeks, imipramine 10 mg/kg, vortioxetine 10 mg/kg, nalmefene 1 mg/kg, 1% sucrose solution; for effect on sucrose consumption in stressed animals, compared to vehicle: rats exposed to chronic mild stress; for weeks of treatment after which increase in sucrose intakes reached statistical significance versus Week 0 / overall effect in the CMS model (conclusion): stressed animals; for weeks of treatment after which increase in sucrose intakes reached statistical significance versus Week 0: daily IP; for overall effect in the CMS model (conclusion): five weeks of treatment
From the text: Rodents inherently have an interest in sweet foods or liquids. Exposure to stressfull conditions reduces the interest for sweet foods or solutions, indicating a reduced sensitivity to rewards. This can be assessed for example in a sucrose preference test, where the stress-induced reduction of intake of a sucrose solution is used as a measure of anhedonia (reduces sensitivity to rewards). This stress-induced reduction of sucrose intake in the rat is a well-established animal model of anhedonia (Nielsen, Arnt and Sánchez. Intracranial self-stimulation and sucrose intake differ as hedonic measures following chronic mild stress: interstrain and interindividual differences. Behav. Brain. Res. (2000), 107 (1-2): 21-33).
Male Wistar rats (Charles River, Germany) were brought into the laboratory one month before the start of the experiment. Except as described below, the animals were singly housed with food and water freely available, and were maintained on a 12-h light/dark cycle (lights on at 08.00) and in a constant temperature (22±2° C.) and humidity (50±5%) conditions. All procedures used in this study are conformed to the rules and principles of the 86/609/EEC Directive, and were approved by the Local Bioethical Committee at the Institute of Pharmacology, Polish Academy of Sciences, Krakow, Poland.
After a period of 3 weeks of adaptation to laboratory and housing conditions, the animals were trained to consume a 1% sucrose solution; training consisted of nine 1 h baseline tests in which sucrose was presented, in the home cage, following 14 h food and water deprivation. The sucrose intake was measured by weighing pre-weighed bottles containing the sucrose solution, at the end of the test. Subsequently, sucrose consumption was monitored, under similar conditions, at weekly intervals throughout the whole experiment.
On the basis of their sucrose intakes in the final baseline test, the animals were divided into two matched groups. One group of animals was subjected to the chronic mild stress procedure for a period of 8 consecutive weeks. Each week of stress regime consisted of: two periods of food or water deprivation, two periods of 45 degree cage tilt, two periods of intermittent illumination (lights on and off every 2 h), two periods of soiled cage (250 ml water in sawdust bedding), one period of paired housing, two periods of low intensity stroboscopic illumination (150 flashes/min), and three periods of no stress. All stressors were 10-14 h of duration and were applied individually and continuously, day and night. […] They were deprived of food and water for 14 h preceding each sucrose test, but otherwise food and water were freely available in the home cage.
(§1) On the basis of their sucrose intakes following 2 weeks of initial stress, both stressed and control groups were each divided further into matched subgroups (n=8), and for subsequent five weeks they received daily IP administration of vehicle (0.9% saline, 1 ml/kg), Vortioxetine (10 mg/kg), Nalmefene (1 mg/kg), joint injections of Vortioxetine (10 mg/kg) and Nalmefene (1 mg/kg) or imipramine HCl (10 mg/kg) as the reference treatment. The volume of all injections was 1 ml/kg. The drugs were administered at approx. 10.00 and the weekly sucrose tests were carried out 24 h following the last drug injections. After five weeks all treatments were terminated and one additional sucrose test was carried out following one week of withdrawal. Stress was continued throughout the entire period of treatment and withdrawal.
The Fisher's LSD test was used for post-hoc comparisons of means.

[2] = Body weights in the CMS study
Description: as §1

[3] = target: μ-opioid receptors (Homo sapiens, UniProt P35372); conditions: in vitro studies; cited from earlier work
[4] = target: κ-opioid receptors (Homo sapiens, UniProt P41145); conditions: in vitro studies; cited from earlier work
[5] = target: δ-opioid receptors (Homo sapiens, UniProt P41143); conditions: in vitro studies; cited from earlier work
Chain of δ-opioid receptors (P41143 whole entry): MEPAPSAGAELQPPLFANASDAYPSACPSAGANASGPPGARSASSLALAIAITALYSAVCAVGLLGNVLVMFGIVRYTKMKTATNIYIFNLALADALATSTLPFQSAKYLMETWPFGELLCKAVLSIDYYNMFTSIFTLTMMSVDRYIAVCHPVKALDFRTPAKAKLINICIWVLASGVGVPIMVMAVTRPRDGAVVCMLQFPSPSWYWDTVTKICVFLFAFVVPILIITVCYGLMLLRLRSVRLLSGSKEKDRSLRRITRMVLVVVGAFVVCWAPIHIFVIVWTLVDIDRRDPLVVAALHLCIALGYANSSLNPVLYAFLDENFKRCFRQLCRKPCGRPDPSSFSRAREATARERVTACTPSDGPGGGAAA

Chain of μ-opioid receptors (P35372 whole entry): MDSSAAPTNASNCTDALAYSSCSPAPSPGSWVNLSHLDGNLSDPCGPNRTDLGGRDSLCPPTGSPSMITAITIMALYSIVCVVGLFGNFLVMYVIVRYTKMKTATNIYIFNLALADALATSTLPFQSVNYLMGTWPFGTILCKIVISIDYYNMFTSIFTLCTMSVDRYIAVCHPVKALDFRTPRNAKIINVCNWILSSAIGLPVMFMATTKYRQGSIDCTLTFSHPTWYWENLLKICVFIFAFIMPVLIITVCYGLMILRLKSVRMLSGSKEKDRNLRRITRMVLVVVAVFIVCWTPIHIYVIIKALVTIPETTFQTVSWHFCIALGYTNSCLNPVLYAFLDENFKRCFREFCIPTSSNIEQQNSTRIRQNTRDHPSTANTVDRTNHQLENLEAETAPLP
Chain of κ-opioid receptors (P41145 whole entry): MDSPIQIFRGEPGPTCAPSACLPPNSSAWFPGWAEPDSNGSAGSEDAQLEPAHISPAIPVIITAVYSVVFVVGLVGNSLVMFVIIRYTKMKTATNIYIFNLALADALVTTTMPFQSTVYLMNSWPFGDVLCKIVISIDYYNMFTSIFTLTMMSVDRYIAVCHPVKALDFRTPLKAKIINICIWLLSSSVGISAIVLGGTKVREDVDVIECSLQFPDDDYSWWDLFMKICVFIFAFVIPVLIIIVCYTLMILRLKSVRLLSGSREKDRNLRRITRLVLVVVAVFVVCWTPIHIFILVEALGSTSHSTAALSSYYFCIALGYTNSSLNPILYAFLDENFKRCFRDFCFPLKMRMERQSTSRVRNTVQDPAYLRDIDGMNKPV

| Structure (SMILES) | effect on sucrose intakes in control animals, compared to vehicle [1] | effect on sucrose consumption in stressed animals, compared to vehicle [1] | weeks of treatment after which increase in sucrose intakes reached statistical significance versus Week 0 [1] | overall effect in the CMS model (conclusion) [1] | Body weights after five weeks of treatment (means ± SEM), Controls ([2]; control rats, daily IP) [g] | effect on body weight compared to vehicle-treated group ([2]; rat, in vivo) | Body weights after five weeks of treatment (means ± SEM), Stressed ([2]; stressed rats, daily IP) [g] | functional activity at the μ receptor [3] | functional activity at the κ receptor [4] | effect on body weight compared to vehicle-treated group ([2]; control and stressed animals, decreases p<0.05 in controls, NS in stressed) | functional activity at the δ receptor [5] | Body weights after five weeks of treatment (means ± SEM), Controls ([2]; rat, in vivo, ip) [g] | Body weights after five weeks of treatment (means ± SEM), Stressed ([2]; rat, in vivo, ip) [g] |
| --- | --- | --- | --- | --- | --- | --- | --- | --- | --- | --- | --- | --- | --- |
| CN(C)CCCN1c2ccccc2CCc2ccccc21 [Imipramine, imipramine HCl] | no significant effect | gradually increased | three | fully reversed | 350 ± 7 | decreased | 326 ± 7 |  |  |  |  |  |  |
| C=C1CC[C@@]2(O)[C@H]3Cc4ccc(O)c5c4[C@@]2(CCN3CC2CC2)[C@H]1O5 [Nalmefene, 17-(cyclopropylmethyl)-4,5-alpha-epoxy-6-methylenemorphinan-3,14-diol] | no effect | gradually increased | four | effective | 371 ± 9 |  | 355 ± 11 | antagonist activity | partial agonist activity | did not affect | antagonist activity |  |  |
| Cc1ccc(Sc2ccccc2N2CCNCC2)c(C)c1 [Vortioxetine, 1-[2-(2,4-dimethyl-phenylsulfanyl)-phenyl]-piperazine] | no significant effect | no significant effect |  | not effective |  | decreased |  |  |  |  |  | 348 ± 9 | 328 ± 9 |

Source: US10376506B2, “Use of an opioid receptor antagonist with kappa-activity and vortioxetine for treatment of depressive disorder with melancholic features” (H. Lundbeck A/S, priority 2013, dated 2019)
